Measurements as given in patent US9434925B2, “Genetically modified mesenchymal stem cell that express an exogenous cytotoxic protein” (APCETH GMBH & CO. KG, priority 2009, dated 2016).

System: human MSCs carrying pLenti6 TK RANTES (HSV tk under RANTES promoter)
Test: Specific cell death of induced genetically modified MSCs after ganciclovir treatment
Type: cell-based
Details: 9 days TNFα (10 ng/ml) and IFNγ (10 ng/ml), then 3 days 100 μM ganciclovir
Experimental: Human MSCs were incubated over night with replication deficient lentiviruses carrying the vector pLenti6 TK RANTES harboring the HSV tk gene under the control of the RANTES promoter and the blasticidin resistance gene under the control of the SV40 promoter (multiplicity of infection (MOI): 10) (see FIG. 8).
After overnight incubation the virus containing media was removed and replaced with fresh media. The next day blasticidin (6 μg/ml) was added to the cells to select for genetically modified MSCs. Culture media, including blasticidin was changed every 3 to 4 days for a minimum of 6 days.
Genetically modified cells (50000 cells in per 6 well) that were generated as described above were treated for 9 days with TNFα (10 ng/ml) and IFNγ (10 ng/ml) with addition of fresh cytokines every 3 days. Subsequently the cells were incubated for 3 days with 100 μM ganciclovir.

Compound: Nc1nc(O)c2ncn(COC(CO)CO)c2n1 [ganciclovir]
- survival of genetically modified MSCs: not surviving
